Reference: paper PMC3789979, “Recruitment of a Cytoplasmic Chaperone Relay by the A2A Adenosine Receptor” (The Journal of Biological Chemistry, 2013)
Like-named read-outs stand apart in the source and are kept apart here.

Legend:
[1] = system: cell surface levels of the A2A receptor, HEK293 cells stably expressing FS2-N-A2AR; test: Cell surface levels of the A2A receptor after 24 h HSP90 inhibitor treatment (acid-strip-sensitive [3H]ZM241385 binding); format: cell-based, human; settings: for EC50 relative to affinity for binding to HSP90: EC50 higher than HSP90 affinity of refs 27, 28
Protocol: (§1) After 60 min at 23 °C, the reaction was terminated by rapid filtration over glass fiber filters (Whatman-GE Healthcare). […] Total receptor numbers were also determined by measuring the radioactivity released after dissolving the samples in 1 M NaOH ([22]). […] The number of viable cells was determined manually using a microscope counting chamber.
FIGURE 5. […] Error bars, S.D. Data are from four independent experiments done in triplicate. Statistical significance was calculated by analysis of variance followed by Dunnett's multiple-comparison post hoc test (*, p < 0.05; ***, p < 0.001). B, HEK293 cells stably expressing the tagged version G2S-N-A2AR were incubated with increasing concentrations of radicicol or 17-DMAG.

[2] = system: A2A receptor glycoforms, HEK293 cells stably expressing G2S-N-A2AR; test: Immunoblot of A2A receptor glycoforms after HSP90 inhibitor treatment; format: cell-based, human; settings: saturating concentrations, 24 h
Protocol: (§2) Cells (1–5 × 10^7 cells) were harvested, and membranes were prepared as described previously ([14]). Membranes were solubilized as described above, followed by incubation with streptavidin-conjugated beads (G2S-N-A2A) or Strep-Tactin-Sepharose beads (FSt2-N-A2A) for 2 h at 4 °C. […] Thereafter, preequilibrated protein G-Sepharose beads were added and incubated for an additional 3 h at 4 °C. The beads were washed twice with 0.5 ml of solubilization buffer. […] A2A receptor and HSP90 were detected by immunoblotting using either anti-A2AR or anti-FLAG and anti-HSP90α (Abcam, Cambridge, UK) antibodies, respectively. As a control, membranes were harvested from untransfected HEK293 cells and processed in parallel. Immunoblots were quantified as described above. Where required, nitrocellulose membranes of primary and secondary antibody labeling were stripped by incubation with KSCN buffer (3 M KSCN, 150 mM KCl, 10 mM NaH2PO4, 100 mg/liter polyvinylpyrrolidone K30, 1-ethenylpyrrolidin-2-one) for 20 min at 23 °C to afford detection of additional proteins with the pertinent antibodies (i.e. anti-HSP90β, anti-HSC70, anti-HOP, anti-P23, and anti-CHIP, all from Abcam).
FIGURE 5. […] Statistical significance was calculated by analysis of variance followed by Dunnett's multiple-comparison post hoc test (*, p < 0.05; ***, p < 0.001). […]

[3] = system: A2A receptor-chaperone complexes, HEK293 cells stably expressing FS2-N-A2AR; test: Co-affinity precipitation of receptor-chaperone complexes after inhibitor treatment; format: cell-based, human; settings: 17-DMAG 2 μM; for amount of HSP90 co-affinity-purified with the A2A receptor / association of HSP70 with the A2A receptor / higher glycosylated, mature form of the co-purified A2A receptor (ratio mature/core): 24 h, kifunensine 2 μM, bortezomib 10 nM
Protocol: as §2
FIGURE 7. […] B, immunoblots done as in A (top) were analyzed with ImageJ. […] C, the A2A receptor was immunoprecipitated from cells that had been incubated in the presence and absence of 17-DMAG (2 μM) as in A. The levels of HSC70 (C, top), HOP (C, second from top), P23 (C, third from top), and CHIP (C, bottom) were determined by immunoblotting and quantified with ImageJ.

[4] = system: endogenously expressed A2A receptor in PC12 cells; test: [3H]ZM241385 binding to membranes of inhibitor-pretreated PC12 cells; format: cell-based; settings: for levels of functional (binding-competent) receptors: 24 h pretreatment, 2 μM, 10 nM [3H]ZM241385, PC12 membranes; for increase in steady state levels of active A2A receptors: PC12 cells, kifunensine 2 μM, bortezomib 10 nM
Protocol: as §1
(§3) FIGURE 9. Effect of HSP90 and/or proteasome inhibitors on the levels of endogenously expressed A2A receptor in PC12 cells. […] B, prior to membrane preparations of PC12 cells expressing the A2A receptor, cells were incubated in the absence and presence of 17-DMAG (2 μM), kifunensine (2 μM), and bortezomib (10 nM). […] After two washes, surface-bound radioligand was released by an acid strip and recovered in the supernatant. Assays were performed in quadruplicates. […] After membrane extraction and immunoprecipitation, aliquots (corresponding to 3 × 10^5 cells) of the immunoprecipitate were blotted for the A2A receptor (top), HSP90α, HSP70–1A, HOP, P23, and CHIP, as indicated. M, mature; C, core glycosylated.

[5] = system: A2A receptor-chaperone complexes in PC12 cells; test: Immunoprecipitation of endogenous A2A receptor from inhibitor-pretreated PC12 cells and immunoblotting; format: cell-based; settings: for fully glycosylated, slowly migrating band of the A2A receptor: kifunensine 2 μM, bortezomib 10 nM
Protocol: as §2, §3

[6] = parameters: method as in PMID 20177028; settings: administered to people; cited from earlier work

Row | Structure (SMILES) | EC50 ([1]; 24 h incubation, acid-strip-sensitive [3H]ZM241385 binding, read-out: EC50 for increase in cell surface levels of the A2A receptor) | EC50 relative to affinity for binding to HSP90 [1] | core glycosylated band of the A2A receptor (immunoblot) [2] | associated CHIP [3] | associated P23 [3] | co-precipitated HOP [3] | co-precipitated HSC70 [3] | amount of HSP90 co-affinity-purified with the A2A receptor [3] | association of HSP70 with the A2A receptor [3] | higher glycosylated, mature form of the co-purified A2A receptor (ratio mature/core) [3] | levels of functional (binding-competent) receptors [4] | HSP90α, HSP70-1A and HSC70 recovered in the immunoprecipitate ([5]; 17-DMAG 2 μM, 24 h) | fully glycosylated, slowly migrating band of the A2A receptor ([5]; 24 h, 17-DMAG 2 μM) | HOP recovered with the A2A receptor ([5]; pretreatment with DMAG) | P23 and CHIP recovered with the A2A receptor ([5]; pretreatment with DMAG) | half-life [6] | increase in steady state levels of active A2A receptors [4] | EC50 ([1]; Homo sapiens, HEK293, read-out: EC50 for increase in cell surface levels of the A2A receptor)
1 | CO[C@H]1/C=C\C=C(/C)C(=O)NC2=CC(=O)C(NCCN(C)C)=C(C[C@@H](C)C[C@H](OC)[C@H](O)[C@@H](C)/C=C(\C)[C@@H]1OC(N)=O)C2=O [17-DMAG, 17-dimethylaminoethylamino-17-demethoxygeldanamycin] | ~1000 nM | about 3 fold | increased accumulation | decline | decrease in associated P23 (HSP90 co-chaperone), but this did not reach statistical significance | substantial increase | substantial increase | increased | augmented | significant increase | increased | abundant amounts | increased the abundance | more | less | 24 h |  | 
2 | CC(C)C[C@H](NC(=O)[C@H](Cc1ccccc1)NC(=O)c1cnccn1)B(O)O [bortezomib] |  |  |  |  |  |  |  | did not cause the accumulation | did not cause the accumulation | significant increase |  |  | increased the abundance |  |  |  | about 1.5 fold | 
3 | O=C1N[C@@H]2[C@@H](O)[C@@H](O)[C@H](O)[C@@H](CO)N2C1=O [kifunensine] |  |  |  |  |  |  |  | accumulation | accumulation | no significant increase | increased |  | increased the abundance |  |  |  | about 1.5 fold | 
4 | C[C@@H]1C[C@H]2O[C@@H]2/C=C\C=C\C(=O)Cc2c(Cl)c(O)cc(O)c2C(=O)O1 [radicicol] |  | about 3 fold | increased accumulation |  |  |  |  |  |  |  |  |  |  |  |  |  |  | ~400 nM
